Assay results published in ChEMBL document CHEMBL1134339, “New 1-aryl-3-(4-arylpiperazin-1-yl)propane derivatives, with dual action at 5-HT1A serotonin receptors and serotonin transporter, as a new class of antidepressants” (J Med Chem, 2001).

Tests used:
[1] = test system: Mus musculus; assay: Time-dependent effect on 8-OH-DPAT-induced hypothermia (change in body temperature) after 15 min, in mice at 0.1 mg/kg dose; format: functional
[2] = test system: Mus musculus; assay: Effect on immobility time in the forced swimming test (FST) in mice at 0 mg/kg dose; format: functional
[3] = test system: Mus musculus; assay: Effect on immobility time in the forced swimming test (FST) in mice at 1 mg/kg dose; format: functional
[4] = test system: Mus musculus; assay: Time-dependent effect on 8-OH-DPAT-induced hypothermia (change in body temperature) after 30 min, in mice at 0.5 mg/kg dose; format: functional
[5] = test system: Mus musculus; assay: Antidepressant-like activity in the forced swimming test (FST) in mice at 0.1 mg/kg dose; Antidepressant like activity; format: functional
[6] = molecular target: T1, 5-hydroxytryptamine receptor 3A (Rattus norvegicus, UniProt P35563); assay: Affinity at 5-hydroxytryptamine 3 receptor from rat frontal cortex using [3H]granisetron as radioligand (For granisetron = Ki(nM)=0.3+/-0.01); format: tissue-based
T1 sequence (P35563 whole entry): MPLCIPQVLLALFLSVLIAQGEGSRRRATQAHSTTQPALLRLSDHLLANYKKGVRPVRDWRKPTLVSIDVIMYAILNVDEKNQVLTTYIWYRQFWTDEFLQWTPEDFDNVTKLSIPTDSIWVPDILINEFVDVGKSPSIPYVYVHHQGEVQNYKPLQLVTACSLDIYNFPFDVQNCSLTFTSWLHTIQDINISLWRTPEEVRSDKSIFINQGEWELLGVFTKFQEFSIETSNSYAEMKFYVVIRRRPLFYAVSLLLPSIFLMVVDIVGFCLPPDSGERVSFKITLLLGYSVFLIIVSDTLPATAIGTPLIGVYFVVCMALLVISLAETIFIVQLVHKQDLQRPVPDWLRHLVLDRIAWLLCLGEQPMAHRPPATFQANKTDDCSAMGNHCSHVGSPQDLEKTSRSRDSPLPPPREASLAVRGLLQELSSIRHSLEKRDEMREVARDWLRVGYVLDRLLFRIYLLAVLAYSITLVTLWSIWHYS

[7] = test system: Mus musculus; assay: Time-dependent effect on 8-OH-DPAT-induced hypothermia (change in body temperature) after 30 min, in mice at 0.1 mg/kg dose; format: functional
[8] = molecular target: T2, Adrenergic receptor alpha-2 (Rattus norvegicus, UniProt P22086+P19328+P22909); assay: Affinity towards alpha-2 adrenoceptor from rat cortex using [3H]-clonidine as radioligand (For clonidine Ki(nM)= […]+/-[…])
T2 sequence (P22086 whole entry): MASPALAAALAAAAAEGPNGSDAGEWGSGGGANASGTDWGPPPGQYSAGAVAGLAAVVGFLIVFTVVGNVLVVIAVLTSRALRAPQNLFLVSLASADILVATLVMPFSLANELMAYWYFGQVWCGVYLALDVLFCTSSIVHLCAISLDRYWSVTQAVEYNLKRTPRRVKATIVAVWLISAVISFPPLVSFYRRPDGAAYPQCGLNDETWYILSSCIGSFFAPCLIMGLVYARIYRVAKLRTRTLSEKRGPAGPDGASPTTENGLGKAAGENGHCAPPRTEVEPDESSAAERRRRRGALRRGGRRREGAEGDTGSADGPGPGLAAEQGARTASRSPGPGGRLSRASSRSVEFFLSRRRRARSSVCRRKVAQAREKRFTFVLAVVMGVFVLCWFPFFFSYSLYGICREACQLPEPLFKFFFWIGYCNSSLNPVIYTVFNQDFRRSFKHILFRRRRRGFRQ
T2 sequence (P19328 whole entry): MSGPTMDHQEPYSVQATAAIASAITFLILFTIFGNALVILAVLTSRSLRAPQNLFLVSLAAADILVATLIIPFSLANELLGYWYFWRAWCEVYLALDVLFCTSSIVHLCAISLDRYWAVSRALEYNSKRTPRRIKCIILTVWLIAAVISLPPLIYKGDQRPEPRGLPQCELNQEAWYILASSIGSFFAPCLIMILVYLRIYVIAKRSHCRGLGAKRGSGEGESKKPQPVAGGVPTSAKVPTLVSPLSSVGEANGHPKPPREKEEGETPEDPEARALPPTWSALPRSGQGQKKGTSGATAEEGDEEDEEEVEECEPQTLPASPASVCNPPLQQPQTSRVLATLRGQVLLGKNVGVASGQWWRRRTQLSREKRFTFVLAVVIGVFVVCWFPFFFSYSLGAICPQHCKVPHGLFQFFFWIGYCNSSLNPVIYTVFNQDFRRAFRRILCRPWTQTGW
T2 sequence (P22909 whole entry): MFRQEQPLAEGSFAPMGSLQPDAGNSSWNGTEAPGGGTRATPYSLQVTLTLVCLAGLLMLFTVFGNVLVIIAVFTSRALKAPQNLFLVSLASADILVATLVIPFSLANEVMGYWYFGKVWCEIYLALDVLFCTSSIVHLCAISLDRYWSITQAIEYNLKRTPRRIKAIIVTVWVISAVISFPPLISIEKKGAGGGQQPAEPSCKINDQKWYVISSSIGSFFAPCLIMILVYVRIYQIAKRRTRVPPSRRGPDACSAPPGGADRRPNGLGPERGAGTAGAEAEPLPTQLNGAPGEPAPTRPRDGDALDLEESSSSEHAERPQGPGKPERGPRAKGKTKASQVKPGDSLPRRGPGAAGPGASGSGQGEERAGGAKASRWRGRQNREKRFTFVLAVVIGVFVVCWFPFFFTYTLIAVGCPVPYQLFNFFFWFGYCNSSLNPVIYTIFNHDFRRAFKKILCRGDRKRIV

[9] = molecular target: T3, 5-hydroxytryptamine receptor 1A (Homo sapiens) (UniProt P08908); details: HeLa
T3 sequence (whole entry): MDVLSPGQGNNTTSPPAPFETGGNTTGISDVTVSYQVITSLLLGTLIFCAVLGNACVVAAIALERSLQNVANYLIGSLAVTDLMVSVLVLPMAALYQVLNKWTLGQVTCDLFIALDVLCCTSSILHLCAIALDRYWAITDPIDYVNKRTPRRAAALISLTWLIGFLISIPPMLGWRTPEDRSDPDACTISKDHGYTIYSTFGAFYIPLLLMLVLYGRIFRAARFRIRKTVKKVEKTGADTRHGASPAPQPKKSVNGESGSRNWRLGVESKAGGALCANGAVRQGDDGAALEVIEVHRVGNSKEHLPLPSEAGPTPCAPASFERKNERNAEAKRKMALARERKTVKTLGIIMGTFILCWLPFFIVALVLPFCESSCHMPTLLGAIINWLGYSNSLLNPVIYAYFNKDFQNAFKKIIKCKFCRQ

[10] = molecular target: Muscarinic acetylcholine receptor; assay: Affinity at muscarinic receptor from rat cortex using [3H]-QNB as radioligand (For atropine Ki(nM)= 3.5+/-0.3)
[11] = test system: Rattus norvegicus; assay: Effect on helpless behavior in rats and the number of escape failures was determined in shuttle-box session-3 (SB-3) at 1 mg/kg dose; format: functional
[12] = test system: Rattus norvegicus; assay: Effect on helpless behavior in rats and the number of escape failures was determined in shuttle-box session-1 (SB-1) at 1 mg/kg dose; format: functional
[13] = test system: Mus musculus; assay: Antidepressant-like activity in the forced swimming test (FST) in mice at 1 mg/kg dose; Antidepressant like activity; format: functional

cAMP [9]	SMILES	Temperature change [1]	Immobility time [2]	Immobility time [3]	Temperature change [4]	Activity [5]	Ki [6]	Temperature change [7]	Ki [8]	Ki [10]	No. of escape failures [11]	No. of escape failures [12]	Activity [13]
28.5 pmol/well	COc1ccccc1N1CCN(CCC(Oc2cccc3ccccc23)c2ccsc2)CC1 (stereo not drawn)	-2.12 °C	157.1 s	<91.6 s	-1.35 °C	0%	> 5 µM	-1.54 °C	5 µM	> 5 µM	0.5	5.8	48%
27 pmol/well	COc1ccccc1N1CCN(CCC(=O)c2csc3ccccc23)CC1	-2.14 °C	169.4 s	<77.1 s	<-0.86 °C	–	–	-1.66 °C	–	–	<2.8	<9.8	–

SMILES	cAMP [9]	Temperature change [1]	Immobility time [2]	Immobility time [3]	Temperature change [4]	Activity [5]	Ki [6]	Temperature change [7]	Ki [8]	Ki [10]	No. of escape failures [11]	No. of escape failures [12]	Activity [13]
COc1ccccc1N1CCN(CCC(O)c2csc3ccccc23)CC1 (stereo not drawn)	19.1 pmol/well	-1.6 °C	145 s	101.8 s	-1.38 °C	35%	> 5 µM	-1.3 °C	2 µM	> 5 µM	–	8	33%
